Test results from patent US12310975B2, “Modulators of BCL6 proteolysis and associated methods of use” (Arvinas Operations, Inc., priority 2019, dated 2025).

Target: BCL6 (Homo sapiens (Human), UniProt P41182)
Assay: Immunofluorescence high content imaging of BCL6 degradation in T47D cells
Type: cell-based
Conditions: T47D cells
Procedure, shortened: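 T47D cells were treated for 3 days at 37 °C with 11-point 3-fold dilutions of bifunctional degrader (final top 0.1 or 1 μM). BCL6 was detected by immunofluorescence after PFA fixation, with Hoechst and cell mask counterstains, and imaged at 10×, 4 fields/well.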

Row | Dmax | IC50 | Compound
1 | 50 to 70% | < 10 nM | CNC(=O)COc1cc2cc(Nc3nc(N4CC5(CCN(CC6CCN(c7ccc8c(c7)C(=O)N(C7CCC(=O)NC7=O)C8=O)CC6)CC5)C4)ncc3Cl)ccc2n(C(C)C)c1=O (stereo not shown) [compound 422, 2-{[6-({5-chloro-2-[7-({1-[2-(2,6-dioxopiperidin-3-yl)-1,3-dioxo-2,3-dihydro-1H-isoindol-5-yl]piperidin-4-yl}methyl)-2,7-diazaspiro[3.5]nonan-2-yl]pyrimidin-4-yl}amino)-2-oxo-1-(propan-2-yl)-1,2-dihydroquinolin-3-yl]oxy}-N-methylacetamide]
2 | ≥ 70% | < 10 nM | CNC(=O)COc1cc2cc(Nc3nc(N4CCN(CC5CCN(c6cccc7c6CN(C6CCC(=O)NC6=O)C7=O)CC5)CC4)ncc3Cl)ccc2n(C(C)C)c1=O (stereo not shown) [compound 423, 2-{[6-({5-chloro-2-[4-({1-[2-(2,6-dioxopiperidin-3-yl)-1-oxo-2,3-dihydro-1H-isoindol-4-yl]piperidin-4-yl}methyl)piperazin-1-yl]pyrimidin-4-yl}amino)-2-oxo-1-(propan-2-yl)-1,2-dihydroquinolin-3-yl]oxy}-N-methylacetamide]
3 | ≥ 70% | 10 to 50 nM | CNC(=O)COc1cc2cc(Nc3nc(N4CCC(OC5CC6(C5)CN(c5cccc7c5CN(C5CCC(=O)NC5=O)C7=O)C6)CC4)ncc3Cl)ccc2n(C(C)C)c1=O (stereo not shown) [compound 424, 2-{[6-({5-chloro-2-[4-({2-[2-(2,6-dioxopiperidin-3-yl)-1-oxo-2,3-dihydro-1H-isoindol-4-yl]-2-azaspiro[3.3]heptan-6-yl}oxy)piperidin-1-yl]pyrimidin-4-yl}amino)-2-oxo-1-(propan-2-yl)-1,2-dihydroquinolin-3-yl]oxy}-N-methylacetamide]
4 | 50 to 70% | < 10 nM | CNC(=O)COc1cc2cc(Nc3nc(N4CCC(CN5CCC6(CC5)CN(c5ccc(C(=O)NC7CCC(=O)NC7=O)c(OC)c5)C6)CC4)ncc3Cl)ccc2n(C(C)C)c1=O (stereo not shown) [compound 425, 4-[7-({1-[5-chloro-4-({3-[(methylcarbamoyl)methoxy]-2-oxo-1-(propan-2-yl)-1,2-dihydroquinolin-6-yl}amino)pyrimidin-2-yl]piperidin-4-yl}methyl)-2,7-diazaspiro[3.5]nonan-2-yl]-N-(2,6-dioxopiperidin-3-yl)-2-methoxybenzamide]
5 | ≥ 70% |  | CNC(=O)COc1cc2cc(Nc3nc(N4CC5(CCN(CC6CCN(c7cccc8c7C(=O)N(C7CCC(=O)NC7=O)C8=O)CC6)CC5)C4)ncc3Cl)ccc2n(C(C)C)c1=O (stereo not shown) [compound 426, 2-{[6-({5-chloro-2-[7-({1-[2-(2,6-dioxopiperidin-3-yl)-1,3-dioxo-2,3-dihydro-1H-isoindol-4-yl]piperidin-4-yl}methyl)-2,7-diazaspiro[3.5]nonan-2-yl]pyrimidin-4-yl}amino)-2-oxo-1-(propan-2-yl)-1,2-dihydroquinolin-3-yl]oxy}-N-methylacetamide]
6 | ≥ 70% | < 10 nM | CNC(=O)COc1cc2cc(Nc3nc(N4CCC5(CC4)CC(OC4CCN(c6cccc7c6CN(C6CCC(=O)NC6=O)C7=O)CC4)C5)ncc3Cl)ccc2n(C(C)C)c1=O (stereo not shown) [compound 427, 2-{[6-({5-chloro-2-[2-({1-[2-(2,6-dioxopiperidin-3-yl)-1-oxo-2,3-dihydro-1H-isoindol-4-yl]piperidin-4-yl}oxy)-7-azaspiro[3.5]nonan-7-yl]pyrimidin-4-yl}amino)-2-oxo-1-(propan-2-yl)-1,2-dihydroquinolin-3-yl]oxy}-N-methylacetamide]
7 |  | ≥ 100 nM | CNC(=O)COc1cc2cc(Nc3nc(N4CCC(CN5CCC(c6cc(C(=O)N7CCC7)cc(N7CCC(=O)NC7=O)c6)CC5)CC4)ncc3Cl)ccc2n(C(C)C)c1=O [compound 428, 2-{[6-({2-[4-({4-[3-(azetidine-1-carbonyl)-5-(2,4-dioxo-1,3-diazinan-1-yl)phenyl]piperidin-1-yl}methyl)piperidin-1-yl]-5-chloropyrimidin-4-yl}amino)-2-oxo-1-(propan-2-yl)-1,2-dihydroquinolin-3-yl]oxy}-N-methylacetamide]
8 | ≥ 70% | < 10 nM | CNC(=O)COc1cc2cc(Nc3nc(N4CCC(OC5CC6(C5)CN(c5ccc(C(=O)NC7CCC(=O)NC7=O)c(OC)c5)C6)CC4)ncc3Cl)ccc2n(C(C)C)c1=O (stereo not shown) [compound 429, 4-[6-({1-[5-chloro-4-({3-[(methylcarbamoyl)methoxy]-2-oxo-1-(propan-2-yl)-1,2-dihydroquinolin-6-yl}amino)pyrimidin-2-yl]piperidin-4-yl}oxy)-2-azaspiro[3.3]heptan-2-yl]-N-(2,6-dioxopiperidin-3-yl)-2-methoxybenzamide]
9 | 50 to 70% | 10 to 50 nM | CNC(=O)COc1cc2cc(Nc3nc(N4CCC(OC5CC6(C5)CN(c5cccc(C(=O)NC7CCC(=O)NC7=O)c5F)C6)CC4)ncc3Cl)ccc2n(C(C)C)c1=O (stereo not shown) [compound 430, 3-[6-({1-[5-chloro-4-({3-[(methylcarbamoyl)methoxy]-2-oxo-1-(propan-2-yl)-1,2-dihydroquinolin-6-yl}amino)pyrimidin-2-yl]piperidin-4-yl}oxy)-2-azaspiro[3.3]heptan-2-yl]-N-(2,6-dioxopiperidin-3-yl)-2-fluorobenzamide]
10 | 50 to 70% | < 10 nM | CNC(=O)COc1cc2cc(Nc3nc(N4CCC(OC5CC6(CCN(c7ccc8c(c7)CN(C7CCC(=O)NC7=O)C8=O)CC6)C5)CC4)ncc3Cl)ccc2n(C(C)C)c1=O (stereo not shown) [compound 431, 2-{[6-({5-chloro-2-[4-({7-[2-(2,6-dioxopiperidin-3-yl)-1-oxo-2,3-dihydro-1H-isoindol-5-yl]-7-azaspiro[3.5]nonan-2-yl}oxy)piperidin-1-yl]pyrimidin-4-yl}amino)-2-oxo-1-(propan-2-yl)-1,2-dihydroquinolin-3-yl]oxy}-N-methylacetamide]
11 | ≥ 70% | 10 to 50 nM | CNC(=O)COc1cc2cc(Nc3nc(N4CCC(OC5CC6(CCN(c7ccc(C(=O)NC8CCC(=O)NC8=O)c(OC)c7)CC6)C5)CC4)ncc3Cl)ccc2n(C(C)C)c1=O (stereo not shown) [compound 432, 4-[2-({1-[5-chloro-4-({3-[(methylcarbamoyl)methoxy]-2-oxo-1-(propan-2-yl)-1,2-dihydroquinolin-6-yl}amino)pyrimidin-2-yl]piperidin-4-yl}oxy)-7-azaspiro[3.5]nonan-7-yl]-N-(2,6-dioxopiperidin-3-yl)-2-methoxybenzamide]
12 | ≥ 70% |  | CNC(=O)COc1cc2cc(Nc3nc(N4CCC(OC5CC6(CCN(c7cccc(C(=O)NC8CCC(=O)NC8=O)c7F)CC6)C5)CC4)ncc3Cl)ccc2n(C(C)C)c1=O (stereo not shown) [compound 433, 3-[2-({1-[5-chloro-4-({3-[(methylcarbamoyl)methoxy]-2-oxo-1-(propan-2-yl)-1,2-dihydroquinolin-6-yl}amino)pyrimidin-2-yl]piperidin-4-yl}oxy)-7-azaspiro[3.5]nonan-7-yl]-N-(2,6-dioxopiperidin-3-yl)-2-fluorobenzamide]
13 | 50 to 70% | < 10 nM | CNC(=O)COc1cc2cc(Nc3nc(N4CCC(OC5CCC6(CC5)CN(c5cccc7c5C(=O)N(C5CCC(=O)NC5=O)C7=O)C6)CC4)ncc3Cl)ccc2n(C(C)C)c1=O (stereo not shown) [compound 434, 2-{[6-({5-chloro-2-[4-({2-[2-(2,6-dioxopiperidin-3-yl)-1,3-dioxo-2,3-dihydro-1H-isoindol-4-yl]-2-azaspiro[3.5]nonan-7-yl}oxy)piperidin-1-yl]pyrimidin-4-yl}amino)-2-oxo-1-(propan-2-yl)-1,2-dihydroquinolin-3-yl]oxy}-N-methylacetamide]
14 | ≥ 70% | < 10 nM | CNC(=O)COc1cc2cc(Nc3nc(N4CCC(CN5CC6(CCN(c7ccc8c(c7)CN(C7CCC(=O)NC7=O)C8=O)CC6)C5)CC4)ncc3Cl)ccc2n(C(C)C)c1=O (stereo not shown) [compound 436, 2-{[6-({5-chloro-2-[4-({7-[2-(2,6-dioxopiperidin-3-yl)-1-oxo-2,3-dihydro-1H-isoindol-5-yl]-2,7-diazaspiro[3.5]nonan-2-yl}methyl)piperidin-1-yl]pyrimidin-4-yl}amino)-2-oxo-1-(propan-2-yl)-1,2-dihydroquinolin-3-yl]oxy}-N-methylacetamide]
15 | ≥ 70% | < 10 nM | CNC(=O)COc1cc2cc(Nc3nc(N4CCC(CN5CCC6(CCN(c7ccc8c(c7)CN(C7CCC(=O)NC7=O)C8=O)C6)C5)CC4)ncc3Cl)ccc2n(C(C)C)c1=O (stereo not shown) [compound 437, 2-{[6-({5-chloro-2-[4-({7-[2-(2,6-dioxopiperidin-3-yl)-1-oxo-2,3-dihydro-1H-isoindol-5-yl]-2,7-diazaspiro[4.4]nonan-2-yl}methyl)piperidin-1-yl]pyrimidin-4-yl}amino)-2-oxo-1-(propan-2-yl)-1,2-dihydroquinolin-3-yl]oxy}-N-methylacetamide]
16 | ≥ 70% | 10 to 50 nM | CNC(=O)COc1cc2cc(Nc3nc(N4CCC(CN5CC6(CCN(c7ccc(C(=O)NC8CCC(=O)NC8=O)c(OC)c7)CC6)C5)CC4)ncc3Cl)ccc2n(C(C)C)c1=O (stereo not shown) [compound 438, 4-[2-({1-[5-chloro-4-({3-[(methylcarbamoyl)methoxy]-2-oxo-1-(propan-2-yl)-1,2-dihydroquinolin-6-yl}amino)pyrimidin-2-yl]piperidin-4-yl}methyl)-2,7-diazaspiro[3.5]nonan-7-yl]-N-(2,6-dioxopiperidin-3-yl)-2-methoxybenzamide]
17 | 50 to 70% | < 10 nM | CNC(=O)COc1cc2cc(Nc3nc(N4CCC(CN5CC6(CCN(c7cccc8c7C(=O)N(C7CCC(=O)NC7=O)C8=O)CC6)C5)CC4)ncc3Cl)ccc2n(C(C)C)c1=O (stereo not shown) [compound 439, 2-{[6-({5-chloro-2-[4-({7-[2-(2,6-dioxopiperidin-3-yl)-1,3-dioxo-2,3-dihydro-1H-isoindol-4-yl]-2,7-diazaspiro[3.5]nonan-2-yl}methyl)piperidin-1-yl]pyrimidin-4-yl}amino)-2-oxo-1-(propan-2-yl)-1,2-dihydroquinolin-3-yl]oxy}-N-methylacetamide]
